Assay results as given in patent publication US11197863B2, “Inhibitors of polo-like kinase 4 (PLK4) for treating pediatric embryonal tumors” (ANN AND ROBERT H. LURIE CHILDREN'S HOSPITAL OF CHICAGO, priority 2017, dated 2021).

Assays:
[1] = phase I, adults, preliminary results; cited from earlier work
[2] = test system: AURKA or other PLK family members; conditions: cited from earlier work
[3] = test system: HFF-SCC058 non-neoplastic human fibroblast cells; assay: Immunofluorescence for gamma-tubulin (centriole number); assay type: cell-based; conditions: 100 and 500 nM
Experimental: (§1) The cells were then blocked in blocking buffer (5% BSA (Jackson Immuno Research Laboratories Inc., USA) in PBST) for 1 hour at RT. The primary antibody ([…] 1:500, Sigma, USA) diluted in 1% BSA in PBST was then added and incubated at 4° C. overnight. Then, the cells were washed with 1×PBS thrice. Secondary antibody (Anti-Rabbit IgG (H+L) F (ab′) 2, 1:500, Sigma, USA) diluted in 1% BSA in PBST was added and incubated at RT for 2 hours. Three time washes with IX PBS were performed. Then, 1 mL of DAPI (Thermo Fisher Scientific, USA) in PBS (0.5 μl of DAPI in 10 ml PBS) was added to the cells and incubated for 10 min at RT. Finally, 3 time washes with 1×PBS were performed and slides were mounted using Mounting Medium (Thermo Fisher Scientific, USA).

[4] = test system: CYP450 isoenzymes 1A2, 2B6, 2C8, 2C9, 2C19, 2D6, 2J2, 3A4 and 3A5 (except 3A4 BOMCC); assay: P450 profiling with Vivid substrates; assay type: in vitro ADME; conditions: human, probe Vivid substrates; isoenzymes recommended for testing by FDA guidance except 3A4 BOMCC; 500 nM highest tested concentration
MON cells [5] = assay: Time-lapse assay, nuclear area and volume; assay type: cell-based, human; conditions: 100 nM, 48 hours, p-value<0.001
Experimental: Cells were plated in 35 mm glass bottom dishes (Cat #150682, Thermo Fisher Scientific, USA) in normal growth medium and allowed to grow overnight. After the treatment medium was added, imaging began immediately. Brightfield images (20×) were taken every 6 minutes at 10 predetermine fields for 48 hours. Images were processed in ZEN 2.3 software (Zeiss, USA).

[6] = test system: MON, G401, BT-12 and BT-16 cells; assay: Apoptosis by flow cytometry (Annexin V / PI); assay type: cell-based, human; conditions: 100 nM, 48 hours vs 0.1% DMSO
Experimental: Cells were treated with various concentrations of […] and 0.1% DMSO (control) for evaluation of the impact of treatment on induction of apoptosis. Live cells were stained with Annexin V as an indicator of early apoptosis and Propidium Iodide (PI—Thermo Fisher Scientific, USA) for detection of late apoptosis and necrosis, according to manufacturer's instructions (Thermo Fisher Scientific, USA). Flow cytometric analysis was performed on a BD Fortessa instrument (BD Biosciences, USA) within an hour of staining. Data was analyzed using Modfit LT from Verity Software House. All experiments were performed in triplicates.

DAOY and D283 cells [7] = assay: Colony formation assay, MB cell lines; assay type: cell-based, human; conditions: 50 nM
Experimental: For each cell line, 200 cells were seeded into six-well plates, incubated for 14 days, fixed with formalin, stained with Cresyl violet (ACROS Organics, USA), and the number of colonies counted using Image J software (www.imagej.nih.gov).
(§2) For proliferation assay DAOY was plated with 5×10^4 cells per well and D283 was plated with 5×10^5 cells per well.

MON cells [8] = assay: Invasion and migration assays (Transwell); assay type: cell-based, human; conditions: 100 nM, 24 hr
Experimental: (§3) Both migration and invasion were assessed using a 24-well Transwell chamber system (Corning, USA).[35] MON cells were plated at 20,000 per well for cell migration and at 50,000 per well coated with matrigel (200 μg/ml, 3 hr of solidification) for cell invasion. HFF-SCC058 cells were used as negative controls. […] All experiments were performed in triplicates.

MUSK = MUSK (Homo sapiens, UniProt O15146); assay: Kinase activity screening (SelectScreen Kinase Profiling); assay type: biochemical; conditions: 10-point titration
Text: (§4) These assays utilized various formats appropriate to the kinase, its substrate and its activity. Formats included the Z-LYTE™ Kinase Assay that determines the differential sensitivity of phosphorylated and non-phosphorylated peptide substrates to proteolytic cleavage using a FRET-based readout, the Adapta™ Universal Kinase Assay that employs a homogeneous, fluorescence-based immunoassay for the detection of ADP produced by kinases and the LanthaScreen™ Eu Kinase Binding Assay that utilizes an Alexa Fluor™ conjugated “tracer” and an Eu-labeled anti-tag antibody to measure binding of a compound to the kinase target [62].

DAOY and D283 cells [9] = assay: MTT proliferation assay, MB cell lines; assay type: cell-based, human; conditions: 72 hours of treatment vs 0.1% DMSO
Experimental: To evaluate cell proliferation, we used TACS MTT Cell Proliferation Assays (Trevigen, USA). We plated 2×10^3 cells on each well of a 96-well plate and the absorbance was measured after 48 and 72 hr at concentrations of 10, 50, 100, 200, and 500 nM. Each experiment was performed in triplicates.
as §2

AURKC = AURKC (Homo sapiens, UniProt Q9UQB9); assay: Kinase activity screening (SelectScreen Kinase Profiling); assay type: biochemical; conditions: read-out: kinase activity inhibited
Text: as §4

[10] = test system: G401, BT-12, BT-16, DAOY and D283 cell lines; assay: Immunofluorescence for gamma-tubulin (centriole number); assay type: cell-based, human
Experimental: as §1

MON rhabdoid cells = assay: as above; assay type: cell-based, human; conditions: 48 hours
Experimental: as §1

DAOY and D283 cells [11] = assay: Migration and invasion assays, MB cell lines; assay type: cell-based, human; conditions: 100 nM, 24 hour vs 0.1% DMSO
Experimental: as §3, §2

[12] = test system: HFF-SCC058 human fibroblasts; assay: Cell cycle analysis by flow cytometry (polyploidy); assay type: cell-based
Experimental: Cell cycle evaluation was performed by staining the cells with PI (Thermo Fisher Scientific, USA) according to manufacturer's instructions. […] Data was analyzed using Modfit LT from Verity Software House. Experiments were performed in triplicates.

[13] = test system: MON, G401, BT-12, BT-16 DAOY and D283 cells; assay: Senescence beta galactosidase assay; assay type: cell-based, human; conditions: 100 nM, 48 hours; all cell lines
Experimental: For each cell line, cells were seeded in 6-well plates in triplicates with 100,000 cells per well. Treatment medium was added the next day and incubated for 48 or 72 hrs. After incubation, cells were washed twice with 1×PBS and 1 mL of the Fixation Buffer from the kit was added to each well of the plate and incubated at RT for 5 min. Cells were washed with 1×PBS and 1 mL of staining solution from the kit was added to each well and incubated at 37° C. without CO2 overnight. The next day, the cells were washed with 1×PBS and the numbers of blue stained cells (which indicate senescent cells) and unstained cells were counted in image J (www.imagej.nih.gov). The percentage of senescent cells was calculated.

[14] = test system: HFF-SCC058 human fibroblasts; assay: Invasion and migration assays (Transwell); assay type: cell-based; conditions: 100 nM, 24 hr
Experimental: as §3

Sequence of MUSK (O15146 24-869): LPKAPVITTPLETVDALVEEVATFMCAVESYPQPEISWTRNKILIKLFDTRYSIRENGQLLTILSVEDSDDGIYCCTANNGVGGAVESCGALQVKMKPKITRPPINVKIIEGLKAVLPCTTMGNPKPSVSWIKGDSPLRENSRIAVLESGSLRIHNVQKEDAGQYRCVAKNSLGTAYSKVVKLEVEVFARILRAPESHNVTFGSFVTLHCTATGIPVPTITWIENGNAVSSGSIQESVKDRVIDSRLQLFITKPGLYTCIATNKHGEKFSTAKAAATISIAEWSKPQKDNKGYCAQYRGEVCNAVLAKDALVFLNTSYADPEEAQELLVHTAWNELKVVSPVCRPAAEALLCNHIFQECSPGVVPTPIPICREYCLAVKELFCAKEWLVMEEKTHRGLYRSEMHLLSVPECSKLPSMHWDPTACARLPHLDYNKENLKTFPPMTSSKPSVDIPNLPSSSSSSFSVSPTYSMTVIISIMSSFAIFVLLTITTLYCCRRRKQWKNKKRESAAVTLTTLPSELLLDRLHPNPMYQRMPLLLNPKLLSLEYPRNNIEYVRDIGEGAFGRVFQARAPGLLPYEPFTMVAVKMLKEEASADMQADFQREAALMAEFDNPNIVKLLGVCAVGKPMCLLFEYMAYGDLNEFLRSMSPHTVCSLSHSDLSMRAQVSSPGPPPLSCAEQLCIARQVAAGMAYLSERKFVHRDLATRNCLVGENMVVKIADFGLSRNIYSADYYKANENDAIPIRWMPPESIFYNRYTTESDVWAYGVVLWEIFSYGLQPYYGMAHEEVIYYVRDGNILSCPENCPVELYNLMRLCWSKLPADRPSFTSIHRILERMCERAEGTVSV
Sequence of AURKC (Q9UQB9 whole entry): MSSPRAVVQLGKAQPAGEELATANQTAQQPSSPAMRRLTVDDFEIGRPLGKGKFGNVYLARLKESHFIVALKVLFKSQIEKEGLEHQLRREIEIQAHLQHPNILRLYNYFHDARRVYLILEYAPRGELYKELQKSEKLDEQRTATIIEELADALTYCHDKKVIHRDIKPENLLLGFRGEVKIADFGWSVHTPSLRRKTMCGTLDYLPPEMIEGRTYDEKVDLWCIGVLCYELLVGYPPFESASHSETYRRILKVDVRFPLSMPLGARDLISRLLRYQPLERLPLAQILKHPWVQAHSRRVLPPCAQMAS

Q: With `COc1ccc2c(c1)[C@]1(C[C@H]1c1ccc3c(/C=C/c4ccc(CN5C[C@@H](C)O[C@@H](C)C5)cc4)n[nH]c3c1)C(=O)N2` [CFI-400945] as the molecule, how does the tolerability [1] read?
A: well tolerated at doses up to 72 ma

Q: What about the “inhibition of AURKA or other PLK family members” value [2] of the same molecule?
A: no significant inhibition

Q: What about the “paradoxical effect on centriole number” value [3] of the same molecule?
A: not observed

Q: What about the IC50 [4] of the same molecule?
A: > 500 nM

Q: What about the “nuclear area (FC)” value (MON cells [5]) of the same molecule?
A: 2.79

Q: What about the “nuclear volume (FC)” value (MON cells [5]) of the same molecule?
A: 4.69

Q: And the “cells undergoing cell death (apoptosis)” value [6]?
A: significantly higher percentage of cells undergoing cell death

Q: What about the colony formation (DAOY and D283 cells [7]) of the same molecule?
A: Complete inhibition of colony formation

Q: What about the invasion and migration (MON cells [8]) of the same molecule?
A: significant reduction

Q: And the IC50 (MUSK)?
A: 48.7 nM

Q: What about the “cell proliferation (MTT)” value (DAOY and D283 cells [9]) of the same molecule?
A: significantly decreased proliferation

Q: And the inhibition at 0.5 µM (AURKC)?
A: 84%

Q: What about the centriole number ([10]; 100 nM) of the same molecule?
A: increase in centriole's number

Q: What about the centriole number ([10]; 500 nM) of the same molecule?
A: significant decrease

Q: And the centriole number (MON rhabdoid cells; 100 nM)?
A: slight increase in centrioles' number

Q: What about the centriole number (MON rhabdoid cells; 500 nM) of the same molecule?
A: significant depletion of centrioles

Q: What about the “cell migration and invasion” value (DAOY and D283 cells [11]) of the same molecule?
A: significant decrease in cell migration and invasion

Q: And the polyploidy [12]?
A: not affecting

Q: What about the senescent cells [13] of the same molecule?
A: significant increase of senescent cells

Q: What about the invasion and migration [14] of the same molecule?
A: no effects were observed
